Experimental findings from patent publication US20240398831A1, “COMPOSITIONS COMPRISING SMALL MOLECULE REGULATORS OF TUMOR IMMUNITY AND METHODS OF USING SAME” (Duke University, priority 2021, published 2024) are described below.

Like-named read-outs stand apart in the source and are kept apart here.

Data set [1] concerns YuMM5.2 tumors. Format: in vivo. The protocol:
Tumor models and cells. The mouse B16F10 and Yumm5.2 cell lines were purchased from American Type Culture Collection (ATCC, Manassas, VA). The mouse melanoma cell line BPD6 was established from iBP as described elsewhere (Zhao et al., Immunity 2018, 48, 147-160). B16F10 and BPD6 cells were maintained in Dulbecco's Modified Eagle's Medium (DMEM) supplemented with 8% fetal bovine serum (FBS), 0.1 mM non-essential amino acids (NEAA) and 1 mM sodium pyruvate. YuMM5.2 cells were maintained in DMEM/F12 media supplemented with 10% FBS. The cells were replated 3 times/week at a confluency of 1:10 and were kept in a 37° C. incubator at 5% CO2. For subcutaneous tumor models B16F10 (5×10^4 or 1×10^5), YuMM5.2 (5×10^5), and BPD6 (5×10^5) cells were injected into the right flank of the mice. For iBP mice, tumors were induced with a single intradermal dose of 4-hydroxytamoxifen in DMSO (150 μg/mouse). Tumors were measured thrice weekly using an electronic caliper. Tumor volumes were calculated by the formula V=L×(W×W)/2. For iBP mouse tumors, volumes were calculated by the formula V=L×B×H. For tumor growth rate studies mice were euthanized when the tumors reached a maximum size of 2000 mm^3.
Ovarlectomy and subcutaneous pellet Insertion. Ovariectomy was performed as previously described (Nelson et al., Science 2013, 342, 1094-1098). Eight days prior to tumor inoculation, 7 weeks old C57BL/6J or 5 weeks old (iBP) female mice were subjected to ovariectomy or sham surgery. Mice were anesthetized in an inhalation chamber (2% Isoflurane) and maintained in half the dose of isoflurane (1%) via nose cone throughout the surgical process. Prior to surgery, mice were administered a 5 mg/kg dose of carprofen subcutaneously. The area below the ribs was shaved with an electronic razor and the skin was sterilized by rubbing with betadine and alcohol (3× alternating). A horizontal incision was made through the skin above the ovary fat pad, followed by a vertical incision through the abdominal muscle wall. The ovary was externalized and removed using a cauterizing scissors (or returned if sham). Fat pad was replaced, and muscle walls were opposed and sutured (1-2 stitches). Following suturing, 1 drop of bupivacaine (0.25%) was added on top of the incision site. The skin was opposed, and a wound clip was placed on the incision site. This was repeated for the other ovary. The mouse was then removed from anesthesia and kept in a clean cage and monitored until conscious. The mice were monitored for recovery for 10 days.
Single cell isolation from tumors. Tumors were isolated, minced on a petri dish in media (DMEM+5% FBS), and then enzymatically digested by the addition of 100 μg/mL DNase I (D5025-150KU, Sigma-Aldrich) and 1 mg/mL collagenase (Collagenase A, Cat #10103586001, Sigma-Aldrich) for 30 mins-45 mins. For iBP models, isolated tumors were sliced into large chunks and subjected to mechanical digestion in a gentleMACS Dissociator for 30 seconds twice. Following this, tumors were digested with an enzyme cocktail containing DNase I, collagenase, and hyaluronidase (100 μg/mL) (H6254, Sigma-Aldrich) for 40 mins following a second round of mechanical digestion for 30 seconds (twice). The cells were then filtered through a 40 μm strainer to produce single cell suspensions and the enzymes were diluted by addition of additional media then spun down to remove media. Red blood cells were lysed with the addition of ACK lysis buffer (Cat #A1049201. ThermoFisher Scientific) for 4 mins at room temperature. Following red blood cell lysis, cells were washed with PBS before proceeding to flow cytometry staining or magnetic bead-based isolation.
Flow cytometry staining. Single cells suspensions (10^6 cells in 50 μL) were incubated with Live/dead fixable dead cell stain in PBS for 10 mins at 4° C. Cells were spun down at 1000×g and were incubated with anti-CD16/32 (Catalog #14-0161-85, ThermoFisher Scientific) in flow buffer (10 gms BSA in 1 L PBS+sodium azide) for 15 mins. […]

Data set [2] deals with T cells co-cultured with BMDM. Briefly: T cells co-cultured with bone marrow-derived macrophages (BMDM) polarized to M2. The data set is classed as cell-based, mouse. As to conditions: for proliferation of T cells (CFSE dilution): macrophages differentiated in NM. How it is done:
In vitro bone marrow-derived macrophage differentiation. For this purpose, bone marrow cells were aseptically collected from 8-10 weeks old female C57BL/6J mice by crushing the femurs and tibias in PBS, […] and 2 mM EDTA. Cells were added to ACK buffer to lyse the red blood cells for 2 mins with intermediate vortexing. The solution was filtered through a 40 μm strainer to remove bone fragments. To differentiate bone marrow cells to macrophages the cells were plated in DMEM media (100%) or DMEM media (70%) and 30% tumor-conditioned media, supplemented with 10% heat-inactivated charcoal-stripped serum in the presence of 30 ng/mL MCSF (Cat #312-02, PeproTech). After 3 days cells were supplemented with 50% of respective fresh media. On day 6 the media was removed and replaced with fresh media. […] For polarization, cells were further treated with LIPS (100 ng/mL, Cat L2630, Sigma Aldrich) and IFNγ (20 ng/mL, Cat #315-05, PeproTech) (24 hr) for M1 polarization or IL4 (10 ng/mL, cat #214-14, PeproTech) for M2 polarization.
T cell proliferation assay and staining. CD3+ T cells were isolated from the spleens of C57BL/6J or P-mel mice with magnetic bead-based T cell isolation kit (Cat #19851, StemCell Technologies). T cells from naïve mice were stained with 5 μM CFSE (Cat #C34554, ThermoFisher Scientific) for 5 minutes in PBS+5% CFS with rapid vortexing following which the cells were washed twice with PBS. Stained T cells were then counted and plated in 96-well plates coated with anti-CD3 antibody (0.5 μg/mL, Cat #19851, ThermoFisher Scientific) anti-CD28 antibody (1 μg/mL, Cat #16-0281-86, Thermo Fisher Scientific) at desired density (250,000 T cells/50,000 CD11b or BMDM) in the presence of IL2 (50 ng/mL) (Cat #212-12, PeproTech). 72 hr after plating the cells were incubated with protein transport inhibitors brefeldin (Cat #00-4506-51, Thermo Fisher Scientific) and monensin (Cat #00-4505-51, Thermo Fisher Scientific) for 6 hr at a final concentration of 2 μM monensin and 3 μg/mL brefeldin after which they were collected and were processed for staining for flow cytometry.
Of note, no changes in the percentage of Ly6C+/Ly6G+ MDSCs in tumors between the two treatment conditions were observed (FIG. 10D). […] The addition of tumor conditioned media allows the TME to be partially mimicked where tumor derived factors influence the differentiation and polarization of macrophages. […] The polarized macrophages were subsequently co-cultured with sub-optimally activated T cells (CD3/CD28 and IL2) isolated from spleens of non-tumor bearing mice, for 72 hr following which they were treated with protein transport inhibitors (monensin and brefeldin) for 6 hr to prevent release of cytokines and chemokines.

[3] abbreviates: E2 vs placebo, ex vivo PMA and ionomycin 4 hr.

Consider 17β-estradiol [E2], for which, in data set [1] (BMDM from Esr1^f/f, LysMCre versus Esr1^f/f), the “tumor promoting effects of E2, tumor cells co-mixed with BMDM (1:1)” value is “significantly compromised”. The “number of PD1+CD8+ T cells (exhausted T cells)” value in data set [1] (E2 treatment) is “increased”. For the same molecule, in data set [1] (setting [3]), the “Granzyme B expression in CD8+ TILs” value was “reduced expression”; the “IFNγ in CD8+ TILs” value is on record as “reduced expression”; the “PD1 expression on CD8+ TILs” value was “significantly more”; the “activation markers CD44 and CD69 on CD8+ TILs” value was “reduced expression”. For the same molecule, the tumor growth result in data set [1] (E2 vs placebo, ovariectomized C57BL/6J) is listed as “significantly increased”. In data set [1] (E2 vs placebo, FIGS. 16D-16E B16F10 and YuMM5.2), the “infiltration of CD4+ FOXP3+ regulatory T cell subsets” value is given as “not observed”. In addition, the tumor growth result in data set [1] (Esr1^f/f and LysMCre control mice) is “increased”. In addition, the tumor growth entry in data set [1] (Esr1^f/f, LysMCre mice (myeloid ERα knockout)) is given as “not evident”. The “percentage of Ly6C+/Ly6G+ MDSCs in tumors” value in data set [1] (flow cytometry, E2 vs placebo) is listed as “no changes”. Also, in data set [1] (flow cytometry, Esr1^f/f animals), the “M1 (proinflammatory macrophages) in tumor infiltrating immune cells” value is on record as “decrease”. Also, the “proliferation of T cells (CFSE)” value in data set [2] (BMDM from Esr1^f/f and Esr1^f/f, LysMCre differentiated in NM, DMSO or E2) is given as “No difference”. For the same molecule, the “T cell proliferation (CFSE dilution)” value in data set [2] (macrophages differentiated in 30% TCM and E2) was “effectively suppressed”. The “proliferation of T cells (CFSE dilution)” value in data set [2] (E2) was “not affected”. Further, the “expression of GZMB and IFNγ in T cells” value in data set [2] (macrophages differentiated in TCM, E2 1 nM vs DMSO) is on record as “decreased expression”. The “expression of IFNγ and GZMB in T cells” value in data set [2] (macrophages in normal media (NM), E2 1 nM) was “did not display any change”.

As for `C[C@]12CC[C@@H]3c4ccc(O)cc4C[C@@H](CCCCCCCCC[S+]([O-])CCCC(F)(F)C(F)(F)F)[C@H]3[C@@H]1CC[C@@H]2O` (some centres unmarked) [fulvestrant], the “inflammatory macrophages (MHCII^hi CD206−)” value in data set [1] (E2 treated mice co-treated with fulvestrant) is recorded as “increase”. For the same molecule, the tumor growth entry in data set [1] (fulvestrant 25 mg/kg, E2 supplemented mice) is on record as “significantly reduced”. The “number of PD1+CD8+ T cells (exhausted T cells)” value in data set [1] (fulvestrant treatment of E2 treated mice) is “decrease”. Further, the “cytotoxic capabilities of tumor infiltrating T cells, Granzyme B (GZMB) expression” value in data set [1] (mouse, in vivo) is listed as “increase”. Also, in data set [2] (macrophages differentiated in 30% TCM, E2 (1 nM)+fulvestrant (100 nM)), the “E2-induced suppression of T cell proliferation” value is reported as “reversed”. Also, the “proliferation of T cells (CFSE dilution)” value in data set [2] (E2+fulvestrant) is on record as “not affected”.
